Activity calls are given as the source filed them.
Assays:
[1] = target: T1, Heat shock factor protein 1 (Mus musculus, UniProt P38532); assay: enhancement of HSF1-driven luciferase signal – cell-based, NIH3T3, luminescence, dose retest, confirmation (AID 435004); format: functional;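 note: stress induced by proteasome inhibitor MG132 added 30 min after compound; luciferase reporter driven by HSF1 response element in NIH3T3 cells; actives raise luminescence as potentiators of the MG132 stress response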
T1 sequence (P38532 whole entry): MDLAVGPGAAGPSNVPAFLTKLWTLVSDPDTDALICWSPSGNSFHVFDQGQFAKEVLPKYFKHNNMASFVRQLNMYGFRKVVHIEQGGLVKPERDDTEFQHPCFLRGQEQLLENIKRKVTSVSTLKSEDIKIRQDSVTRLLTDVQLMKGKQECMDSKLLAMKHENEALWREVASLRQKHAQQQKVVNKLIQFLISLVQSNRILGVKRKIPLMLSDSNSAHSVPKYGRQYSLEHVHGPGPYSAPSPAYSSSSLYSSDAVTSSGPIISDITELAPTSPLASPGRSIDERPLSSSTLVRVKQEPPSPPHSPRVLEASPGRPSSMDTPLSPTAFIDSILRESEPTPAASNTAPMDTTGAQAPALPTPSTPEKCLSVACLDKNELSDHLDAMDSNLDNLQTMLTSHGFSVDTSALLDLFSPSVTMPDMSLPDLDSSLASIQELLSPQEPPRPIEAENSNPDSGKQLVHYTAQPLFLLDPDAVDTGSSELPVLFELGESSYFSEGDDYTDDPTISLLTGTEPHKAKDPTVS

[2] = target: Heat shock protein HSP 90-alpha (Homo sapiens, UniProt P07900); format: functional, organism-based
HeLa = assay: ATP-based viability loss in HeLa cells – cell-based, CellTiter-Glo luminescence, cherry-pick samples, cytotoxicity control for MITF activator project, dose response (AID 540259); format: functional; conditions: Homo sapiens
[3] = target: T2, Microphthalmia-associated transcription factor (Homo sapiens, UniProt O75030); assay: reducers of TRPM1 reporter luminescence, concentration series – cell-based, SK-MEL-5, cherry-picked, set 3, MITF inhibitor project, dose response (AID 493073); format: functional;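 note: SK-MEL-5 melanoma cells with luciferase driven by the MITF target TRPM1 promoter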
T2 sequence (O75030 whole entry): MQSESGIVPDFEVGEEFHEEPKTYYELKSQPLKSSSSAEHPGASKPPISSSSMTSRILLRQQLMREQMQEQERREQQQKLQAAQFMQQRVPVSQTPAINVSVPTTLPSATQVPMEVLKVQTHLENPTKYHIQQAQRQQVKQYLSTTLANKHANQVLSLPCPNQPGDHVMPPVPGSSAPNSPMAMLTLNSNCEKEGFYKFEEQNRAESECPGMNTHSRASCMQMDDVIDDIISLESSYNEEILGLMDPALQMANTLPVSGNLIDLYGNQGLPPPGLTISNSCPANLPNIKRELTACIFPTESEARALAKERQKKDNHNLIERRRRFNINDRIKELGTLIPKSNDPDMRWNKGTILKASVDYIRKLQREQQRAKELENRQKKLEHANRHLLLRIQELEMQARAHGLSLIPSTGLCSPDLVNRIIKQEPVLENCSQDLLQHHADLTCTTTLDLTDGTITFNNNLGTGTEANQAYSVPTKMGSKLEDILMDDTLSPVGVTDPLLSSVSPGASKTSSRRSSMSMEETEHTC

CHO = CHO cell viability loss, potency – luminescence, cytotoxicity control for TLR9-MyD88 binding inhibitor project, dose response (AID 588339); format: functional, cell-based, hamster; conditions: Cricetulus griseus;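 note: CHO cells stably coexpressing TLR9 and MyD88 fusions from primary screen; compound exposure lasted 48 hours before viability readout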
[4] = reduction of Shn3 3'UTR-driven luciferase in osteoblasts – cell-based, Clone20 osteoblasts, firefly luciferase, cherry-picked, dose response (AID 624132); format: functional;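 note: firefly luciferase luminescence from reporter carrying the Shn3 3'UTR in osteoblasts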
[5] = loss of viability in HepG2 cells – cell-based, CellTiter-Glo, cherry-picked, cytotoxicity control for Shn3 inhibitor project, dose response (AID 624134); format: functional
[6] = non-specific 3'UTR reporter inhibition in Clone20-Shn3RL – cell-based, Renilla luciferase, cherry-picked, counter-screen for Shn3 inhibitor project, dose response (AID 624133); format: functional
Paired box protein Pax-8 = Paired box protein Pax-8 (Homo sapiens, UniProt Q06710); assay: PAX8 transcriptional activity inhibition in RMG-I – RMG-I cells, luciferase, cherry-pick, dose response (AID 687027); format: functional, cell-based;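 note: luciferase reporter driven by Pax8 target thyroperoxidase promoter measured by SteadyGlo luminescence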
Chain of Paired box protein Pax-8 (Q06710 whole entry): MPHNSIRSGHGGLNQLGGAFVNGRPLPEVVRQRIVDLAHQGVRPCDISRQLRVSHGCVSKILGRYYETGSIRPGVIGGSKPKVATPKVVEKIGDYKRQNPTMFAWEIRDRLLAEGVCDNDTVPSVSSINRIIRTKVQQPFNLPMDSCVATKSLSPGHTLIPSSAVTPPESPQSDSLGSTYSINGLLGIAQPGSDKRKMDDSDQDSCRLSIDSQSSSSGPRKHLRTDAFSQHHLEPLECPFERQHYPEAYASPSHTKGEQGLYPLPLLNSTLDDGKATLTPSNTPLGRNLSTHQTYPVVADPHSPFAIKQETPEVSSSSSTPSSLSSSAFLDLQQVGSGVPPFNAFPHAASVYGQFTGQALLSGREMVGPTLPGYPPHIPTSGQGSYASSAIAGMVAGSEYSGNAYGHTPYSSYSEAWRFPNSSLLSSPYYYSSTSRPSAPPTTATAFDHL

[7] = general cell-killing toxicity readout – plate reader, dry powder samples, cytotoxicity control for PAX8 inhibitor project, dose response (AID 743021); format: functional, cell-based
[8] = luciferase reporter signal suppression in cells – H4 neuroglioma cells, luminescence, dose response (AID 1990); format: functional, cell-based
BJ [9] = assay: BJ-TERT fibroblast viability loss – cell-based, RAS-independent, luminescence, dose response (AID 1933); format: functional; conditions: Homo sapiens
[10] = Luminescence Cell-Based Dose Response HTS to Identify Inhibitors of 5'UTR Stem-Loop Driven Prion Protein mRNA Translation in H4 Neuroglioblastoma Cells. [Related pubchem assays: 1827 (Project Summary), 1813 (Primary HTS)]; format: functional
[11] = alpha-synuclein stem-loop luciferase translation blockers – H4 neuroglioma cells, luminescence, confirmation (AID 1988); format: functional, cell-based
BJ [12] = assay: cells; format: functional, cell-based; conditions: Homo sapiens
[13] = microbe, parasite or virus in culture; format: functional; conditions: Mycobacterium tuberculosis
BJ [14] = assay: BJ-TERT-LT-ST fibroblast viability loss – cell-based, RAS-independent, luminescence, dose response (AID 1935); format: functional; conditions: Homo sapiens;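 note: BJ fibroblasts immortalized with TERT plus LT and ST oncogenes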
[15] = DRD fibroblast viability loss – cell-based, non-viral oncogenic, luminescence, dose response (AID 1934); format: functional; conditions: Homo sapiens
[16] = HEK-293T viability loss after treatment – luminescence, T-cell screen hits, cytotoxicity control for TCR NF-kB inhibitor project, dose response (AID 489026); format: functional, cell-based;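 note: cells exposed to compound about 14 hours before the viability readout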
BJ [17] = assay: growth inhibition of engineered Ras-driven BJ cells – cell-based, alamar blue fluorescence, cherrypicked samples, dose response (AID 2631); format: functional; conditions: Homo sapiens;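 note: confirmatory dose-response assay in RAS-dependent BJ fibroblasts engineered with TERT, LT and ST, with cytotoxicity read by fluorescence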
[18] = viability of uninfected HEp-2 cells – cell-based, HTS, cytotoxicity control for RSV inhibitor project, dose response (AID 2410); format: functional; conditions: human respiratory syncytial virus

O=C(c1ccc2c(=O)n(C3CCCC3)c(=S)[nH]c2c1)N1CCc2ccccc21
EC50 [1]: > 260 µM (inactive)
AC50 [2]: 3.49 µM (active)

Cc1ccc(-c2noc(C3CCCCC3)n2)cc1
AC50 (HeLa): 79.6 µM (active)

CC1(C(=O)c2ccccc2)C2c3c(ccc4ccccc34)OC(=O)C21C(=O)N1CCOCC1 (stereo not drawn)
AC50 [2]: 4.17 µM (active)

CS(=O)(=O)c1ccc(C(=O)OCC(=O)NCc2cccs2)cc1[N+](=O)[O-]
AC50 [3]: 11.7 µM (active)
IC50 (CHO): 4.83 µM (active)
AC50 [4]: 2.07 µM (active)
AC50 [5]: 62.3 µM (active)
AC50 [6]: 13.4 µM (active)
AC50 (Paired box protein Pax-8): 14 µM (active)
AC50 [7]: 26 µM (active)

CCCCOc1ccc(Br)cc1/C(C)=N/NC1=NCCN1
EC50 [8]: 4.71 µM (inconclusive)
EC50 (BJ [9]): 3.18 µM (inconclusive)
EC50 [10]: 4.92 µM (active)
EC50 [11]: 3.86 µM (active)
EC50 (BJ [12]): 8.49 µM (inconclusive)
CC50 [13]: 8.31 µM (active)
EC50 (BJ [14]): 6.41 µM (inconclusive)
EC50 [15]: 6.08 µM (active)
IC50 [16]: 46.8 µM (inactive)
EC50 (BJ [17]): 0.619 µM (inconclusive)

C(=N\Nc1nc2ccccc2[nH]1)/c1ccc2ncccc2c1
CC50 [18]: 2.99 µM (active)
EC50 (BJ [9]): 10.8 µM (active)
EC50 (BJ [12]): 2.75 µM (inconclusive)
EC50 (BJ [14]): 30.7 µM (active)
EC50 [15]: 2.32 µM (inconclusive)
EC50 (BJ [17]): > 133 µM (inactive)

CN(/N=C/c1ccc2c(c1)OCO2)c1ccccc1
AC50 (HeLa): 98.3 µM (active)

Source: ChEMBL document CHEMBL1201862, “PubChem BioAssay data set” (2004)
